Target: TrkA (Homo sapiens (Human), UniProt P04629)
Assay: TrkA Omnia Assay
Format: biochemical
Settings: averaged IC50; 20 nM enzyme, 500 μM ATP, 10 μM peptide substrate
Method in brief: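 Recombinant TrkA (20 nM) preincubated 10 min at ambient temperature with compound, then Omnia Tyr Peptide #4 (10 μM) and ATP (500 μM) added in 25 mM MOPS pH 7.5, 5 mM MgCl2, 0.005% Triton X-100. Fluorescence (ex 360/em 485 nm) followed continuously for 70 min; IC50 from initial rates by 4- or 5-parameter logistic fit.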

Sequence of TrkA (P04629 33-796): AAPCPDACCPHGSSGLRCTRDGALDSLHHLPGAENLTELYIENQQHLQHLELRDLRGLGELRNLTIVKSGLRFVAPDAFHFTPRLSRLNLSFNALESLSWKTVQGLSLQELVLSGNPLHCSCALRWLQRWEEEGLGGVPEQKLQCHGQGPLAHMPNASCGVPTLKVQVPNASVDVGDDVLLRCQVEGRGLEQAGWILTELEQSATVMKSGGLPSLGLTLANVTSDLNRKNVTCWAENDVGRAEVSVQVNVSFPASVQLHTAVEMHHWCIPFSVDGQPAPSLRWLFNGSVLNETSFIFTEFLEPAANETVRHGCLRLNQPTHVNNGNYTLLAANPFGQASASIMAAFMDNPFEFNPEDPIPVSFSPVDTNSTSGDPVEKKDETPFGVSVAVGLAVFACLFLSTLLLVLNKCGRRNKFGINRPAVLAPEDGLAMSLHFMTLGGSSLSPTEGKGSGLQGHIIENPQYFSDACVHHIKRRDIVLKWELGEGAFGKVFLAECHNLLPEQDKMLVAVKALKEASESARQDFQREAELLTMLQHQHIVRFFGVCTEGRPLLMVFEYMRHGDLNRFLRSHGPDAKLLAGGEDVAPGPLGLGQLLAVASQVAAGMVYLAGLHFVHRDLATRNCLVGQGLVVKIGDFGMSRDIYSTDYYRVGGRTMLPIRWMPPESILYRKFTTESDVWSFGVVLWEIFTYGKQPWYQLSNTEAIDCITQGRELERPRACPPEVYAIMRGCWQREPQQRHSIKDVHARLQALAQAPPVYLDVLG

Structure (SMILES) | IC50 [nM]
COCCN1C[C@@H](NC(=O)Nc2c(C)c(-c3cnn(C)c3)nn2-c2cccc(F)c2)[C@H](c2ccc(F)c(F)c2)C1 [Example 313, 1-((3S,4R)-4-(3,4-difluorophenyl)-1-(2-methoxyethyl)pyrrolidin-3-yl)-3-(1-(3-fluorophenyl)-1′,4-dimethyl-1H,1′H-[3,4′-bipyrazol]-5-yl)urea] | < 100
COCCN1C[C@@H](NC(=O)Nc2c(C)c(-c3cnn(C)c3)nn2-c2ccccc2F)[C@H](c2ccc(F)c(F)c2)C1 [Example 314, 1-((3S,4R)-4-(3,4-difluorophenyl)-1-(2-methoxyethyl)pyrrolidin-3-yl)-3-(1-(2-fluorophenyl)-1′,4-dimethyl-1H,1′H-[3,4′-bipyrazol]-5-yl)urea] | < 100
COCCN1C[C@@H](NC(=O)Nc2c(C)c(-c3cnn(C)c3)nn2-c2ccc(F)cc2)[C@H](c2ccc(F)cc2)C1 [Example 318, 1-((3S,4R)-4-(4-fluorophenyl)-1-(2-methoxyethyl)pyrrolidin-3-yl)-3-(1-(4-fluorophenyl)-1′,4-dimethyl-1H,1′H-[3,4′-bipyrazol]-5-yl)urea] | 100 to 1000
COCCN1C[C@@H](NC(=O)Nc2c(C)c(-c3cnn(C)c3)nn2-c2ccc(F)c(Cl)c2)[C@H](c2ccc(F)cc2)C1 [Example 322] | < 100
COCCN1C[C@@H](NC(=O)Nc2c(C)c(-c3cnn(C)c3)nn2-c2cccc(Cl)c2F)[C@H](c2ccc(F)cc2)C1 [Example 323] | < 100
COCCN1C[C@@H](NC(=O)Nc2c(C)c(-c3cnn(C)c3)nn2-c2ccccc2)[C@H](c2ccc(F)cc2F)C1 [Example 324, 1-((3S,4R)-4-(2,4-difluorophenyl)-1-(2-methoxyethyl)pyrrolidin-3-yl)-3-(1′,4-dimethyl-1-phenyl-1H,1′H-[3,4′-bipyrazol]-5-yl)urea] | < 100
COCCN1C[C@@H](NC(=O)Nc2c(C)c(-c3cnn(C)c3)nn2-c2ccccc2)[C@H](c2ccc(C)cc2)C1 [Example 327, 1-(1′,4-dimethyl-1-phenyl-1H,1′H-[3,4′-bipyrazol]-5-yl)-3-((3S,4R)-1-(2-methoxyethyl)-4-(p-tolyl)pyrrolidin-3-yl)urea] | < 100
COCCN1C[C@@H](NC(=O)Nc2c(C)c(-c3ccccc3)nn2-c2ccccc2)[C@H](c2ccc(F)c(F)c2)C1 [Example 328, 1-((3S,4R)-4-(3,4-difluorophenyl)-1-(2-methoxyethyl)pyrrolidin-3-yl)-3-(4-methyl-1,3-diphenyl-1H-pyrazol-5-yl)urea] | < 100
COCCN1C[C@@H](NC(=O)Nc2c(C)c(-c3ccccc3)nn2-c2ccccc2)[C@H](c2cc(F)cc(F)c2)C1 [Example 329, 1-((3S,4R)-4-(3,5-difluorophenyl)-1-(2-methoxyethyl)pyrrolidin-3-yl)-3-(4-methyl-1,3-diphenyl-1H-pyrazol-5-yl)urea] | < 100
COCCN1C[C@@H](NC(=O)Nc2c(C)c(-c3ccccc3)nn2-c2ccccc2)[C@H](c2cc(F)c(F)c(F)c2)C1 [Example 330, 1-((3S,4R)-4-(3,4,5-trifluorophenyl)-1-(2-methoxyethyl)pyrrolidin-3-yl)-3-(4-methyl-1,3-diphenyl-1H-pyrazol-5-yl)urea] | < 100
COCCN1C[C@@H](NC(=O)Nc2c(C)c(-c3ccccc3)nn2-c2ccccc2)[C@H](c2ccc(F)cc2)C1 [Example 331, 1-((3S,4R)-4-(4-fluorophenyl)-1-(2-methoxyethyl)pyrrolidin-3-yl)-3-(4-methyl-1,3-diphenyl-1H-pyrazol-5-yl)urea] | < 100
COCCN1CC(c2cnn(C)c2)[C@H](NC(=O)Nc2c(Br)c(C)nn2-c2ccccc2)C1 (some centres unmarked) [Example 332] | 100 to 1000
COCCN1C[C@@H](NC(=O)Nc2c(C)c(C)nn2-c2ccccc2)[C@H](c2cccc(C(F)(F)F)c2)C1 [Example 336, 1-(3,4-dimethyl-1-phenyl-1H-pyrazol-5-yl)-3-((3S,4R)-1-(2-methoxyethyl)-4-(3-(trifluoromethyl)phenyl)pyrrolidin-3-yl)urea] | < 100
COCCN1C[C@@H](NC(=O)Nc2c3c(nn2-c2ccccc2)CCC3)[C@H](c2cncc(F)c2)C1 [Example 337, 1-((3S,4R)-4-(5-fluoropyridin-3-yl)-1-(2-methoxyethyl)pyrrolidin-3-yl)-3-(2-phenyl-2,4,5,6-tetrahydrocyclopenta[c]pyrazol-3-yl)urea] | < 100
COCCN1C[C@H](NC(=O)Nc2c3c(nn2-c2ccccc2)CCC3)[C@@H](c2cncc(F)c2)C1 [Example 338, 1-((3R,4S)-4-(5-fluoropyridin-3-yl)-1-(2-methoxyethyl)pyrrolidin-3-yl)-3-(2-phenyl-2,4,5,6-tetrahydrocyclopenta[c]pyrazol-3-yl)urea] | < 100
COCCN1C[C@@H](NC(=O)Nc2c(C)c(OCCF)nn2-c2ccccc2)[C@H](c2cncc(F)c2)C1 [Example 339, 1-(3-(2-fluoroethoxy)-4-methyl-1-phenyl-1H-pyrazol-5-yl)-3-((3S,4R)-4-(5-fluoropyridin-3-yl)-1-(2-methoxyethyl)pyrrolidin-3-yl)urea] | < 100
COCCN1C[C@H](NC(=O)Nc2c(C)c(OCCF)nn2-c2ccccc2)[C@@H](c2cncc(F)c2)C1 [Example 340, 1-(3-(2-fluoroethoxy)-4-methyl-1-phenyl-1H-pyrazol-5-yl)-3-((3R,4S)-4-(5-fluoropyridin-3-yl)-1-(2-methoxyethyl)pyrrolidin-3-yl)urea] | 100 to 1000
COCCN1C[C@@H](NC(=O)Nc2c(C)c(-c3cnn(C)c3)nn2-c2ccccc2)[C@H](c2ccncc2F)C1 [Example 346, 1-(1′,4-dimethyl-1-phenyl-1H,1′H-[3,4′-bipyrazol]-5-yl)-3-((3S,4R)-4-(3-fluoropyridin-4-yl)-1-(2-methoxyethyl)pyrrolidin-3-yl)urea] | < 100
COCCN1C[C@@H](NC(=O)Nc2c(C)c(-c3ncn(C)n3)nn2-c2ccccc2)[C@H](c2ccc(F)c(F)c2)C1 [Example 347, 1-((3S,4R)-4-(3,4-difluorophenyl)-1-(2-methoxyethyl)pyrrolidin-3-yl)-3-(4-methyl-3-(1-methyl-1H-1,2,4-triazol-3-yl)-1-phenyl-1H-pyrazol-5-yl)urea] | < 100
COCCN1C[C@@H](NC(=O)Nc2c(C)c(-c3cnn(CCOC)c3)nn2-c2ccccc2)[C@H](c2ccc(F)c(F)c2)C1 [Example 348, 1-((3S,4R)-4-(3,4-difluorophenyl)-1-(2-methoxyethyl)pyrrolidin-3-yl)-3-(1′-(2-methoxyethyl)-4-methyl-1-phenyl-1H,1′H-[3,4′-bipyrazol]-5-yl)urea] | < 100
COCCN1C[C@@H](NC(=O)Nc2c(C)c(C#N)nn2-c2ccccc2)[C@H](c2ccc(F)c(F)c2)C1 [Example 349, 1-(3-cyano-4-methyl-1-phenyl-1H-pyrazol-5-yl)-3-((3S,4R)-4-(3,4-difluorophenyl)-1-(2-methoxyethyl)pyrrolidin-3-yl)urea] | < 100
COCCN1C[C@@H](NC(=O)Nc2c(C)c(-c3cnn(CCO)c3)nn2-c2ccccc2)[C@H](c2ccc(F)c(F)c2)C1 [Example 350, 1-((3S,4R)-4-(3,4-difluorophenyl)-1-(2-methoxyethyl)pyrrolidin-3-yl)-3-(1′-(2-hydroxyethyl)-4-methyl-1-phenyl-1H,1′H-[3,4′-bipyrazol]-5-yl)urea] | < 100
COCCN1C[C@@H](NC(=O)Nc2c(C)c(-c3cnn(C)n3)nn2-c2ccccc2)[C@H](c2ccc(F)c(F)c2)C1 [Example 351, 1-((3S,4R)-4-(3,4-difluorophenyl)-1-(2-methoxyethyl)pyrrolidin-3-yl)-3-(4-methyl-3-(2-methyl-2H-1,2,3-triazol-4-yl)-1-phenyl-1H-pyrazol-5-yl)urea] | < 100
COCCN1C[C@@H](NC(=O)Nc2c(C)c(Br)nn2-c2ccccc2)[C@H](c2ccc(F)c(F)c2)C1 [Example 352, 1-(3-bromo-4-methyl-1-phenyl-1H-pyrazol-5-yl)-3-((3S,4R)-4-(3,4-difluorophenyl)-1-(2-methoxyethyl)pyrrolidin-3-yl)urea] | < 100
COCCN1C[C@@H](NC(=O)Nc2c3c(nn2-c2ccccc2)C(=O)N(C)C3)[C@H](c2ccc(F)c(F)c2)C1 [Example 353, 1-((3S,4R)-4-(3,4-difluorophenyl)-1-(2-methoxyethyl)pyrrolidin-3-yl)-3-(5-methyl-6-oxo-2-phenyl-2,4,5,6-tetrahydropyrrolo[3,4-c]pyrazol-3-yl)urea] | 100 to 1000
COCCN1C[C@@H](NC(=O)Nc2c(C)c(OCc3nnc(C)o3)nn2-c2ccccc2)[C@H](c2ccc(F)c(F)c2)C1 [Example 355, 1-((3S,4R)-4-(3,4-difluorophenyl)-1-(2-methoxyethyl)pyrrolidin-3-yl)-3-(4-methyl-3-((5-methyl-1,3,4-oxadiazol-2-yl)methoxy)-1-phenyl-1H-pyrazol-5-yl)urea] | < 100
CCOc1nn(-c2ccccc2)c(NC(=O)N[C@@H]2CN(CCOC)C[C@H]2c2ccc(F)c(F)c2)c1Cl [Example 356, 1-(4-chloro-3-ethoxy-1-phenyl-1H-pyrazol-5-yl)-3-((3S,4R)-4-(3,4-difluorophenyl)-1-(2-methoxyethyl)pyrrolidin-3-yl)urea] | < 100
CCOc1nn(-c2ccccc2)c(NC(=O)N[C@@H]2CN(CCOC)C[C@H]2c2ccc(F)c(F)c2)c1F [Example 357, 1-((3S,4R)-4-(3,4-difluorophenyl)-1-(2-methoxyethyl)pyrrolidin-3-yl)-3-(3-ethoxy-4-fluoro-1-phenyl-1H-pyrazol-5-yl)urea] | < 100
COCCN1C[C@@H](NC(=O)Nc2c(Br)c(OCC(C)(C)O)nn2-c2ccccc2)[C@H](c2ccc(F)c(F)c2)C1 [Example 358, 1-(4-bromo-3-(2-hydroxy-2-methylpropoxy)-1-phenyl-1H-pyrazol-5-yl)-3-((3S,4R)-4-(3,4-difluorophenyl)-1-(2-methoxyethyl)pyrrolidin-3-yl)urea] | < 100

Source: patent US10323022B2, “Pyrrolidinyl urea, pyrrolidinyl thiourea and pyrrolidinyl guanidine compounds as TrkA kinase inhibitors” (Array BioPharma Inc., priority 2011, dated 2019)
